From the supplement of paper PMC10307832 come the findings set out here.

For the first experiment, the system named is COR-L 105. In words: relative viability (nuclei count vs DMSO), 5 days (fraction); higher = more cells survive. The following applies: first compound 6.325 µM. A digest of the protocol: (§1)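 Dosing by pin tool came one day after lung cancer cell lines were seeded in 1536-well plates, using either one drug or a fixed anchor-drug dose plus five library-drug doses (not always all listed) in √10 steps. After 5 days, nuclei were counted on 4× images. Relative viability is treated-well nuclei count divided by vehicle-well nuclei count, and values are medians of duplicate plates.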
As to `COCC1(CO)C(=O)C2CCN1CC2` (stereo not drawn) [PRIMA-1MET] + O=C(c1cc(Cc2n[nH]c(=O)c3ccccc23)ccc1F)N1CCN(C(=O)C2CC2)CC1 [Olaparib] (partner 8 µM), the relative viability is 0.688.

Staying with this experiment, now noted: first compound 20 µM.
Compound `COCC1(CO)C(=O)C2CCN1CC2` (stereo not drawn) [PRIMA-1MET] + N=C(N)NC(=N)NCCc1ccccc1 [Phenformin] (partner 250 µM) gave a relative viability of 0.124.

`COCC1(CO)C(=O)C2CCN1CC2` (stereo not drawn) [PRIMA-1MET] + Nc1nc2[nH]cc(CCc3ccc(C(=O)N[C@@H](CCC(=O)O)C(=O)O)cc3)c2c(=O)[nH]1 [Pemetrexed] (partner 0.2 µM) gave a relative viability of 0.229.

Compound `COCC1(CO)C(=O)C2CCN1CC2` (stereo not drawn) [PRIMA-1MET] + CC(=O)Nc1cccc(-n2c(=O)n(C3CC3)c(=O)c3c(Nc4ccc(I)cc4F)n(C)c(=O)c(C)c32)c1 [Trametinib] (partner 0.02 µM) came in with a relative viability of 0.108.

For the compound `COCC1(CO)C(=O)C2CCN1CC2` (stereo not drawn) [PRIMA-1MET] + Nc1ncn([C@H]2C[C@H](O)[C@@H](CO)O2)c(=O)n1 [Decitabine] (partner 2 µM), the relative viability stood at 0.179.

`COCC1(CO)C(=O)C2CCN1CC2` (stereo not drawn) [PRIMA-1MET] + O=C(c1cc(Cc2n[nH]c(=O)c3ccccc23)ccc1F)N1CCN(C(=O)C2CC2)CC1 [Olaparib] (partner 8 µM) returned a relative viability of 0.458.

The next experiment concerns HARA. Described as above. The following applies: first compound 0.2 µM. A digest of the protocol:
as §1
For `COCC1(CO)C(=O)C2CCN1CC2` (stereo not drawn) [PRIMA-1MET] + N=C(N)NC(=N)NCCc1ccccc1 [Phenformin] (partner 250 µM), the relative viability amounted to 0.526.

`COCC1(CO)C(=O)C2CCN1CC2` (stereo not drawn) [PRIMA-1MET] + Nc1nc2[nH]cc(CCc3ccc(C(=O)N[C@@H](CCC(=O)O)C(=O)O)cc3)c2c(=O)[nH]1 [Pemetrexed] (partner 0.2 µM) gave a relative viability of 0.278.

Consider `COCC1(CO)C(=O)C2CCN1CC2` (stereo not drawn) [PRIMA-1MET] + CC(=O)Nc1cccc(-n2c(=O)n(C3CC3)c(=O)c3c(Nc4ccc(I)cc4F)n(C)c(=O)c(C)c32)c1 [Trametinib] (partner 0.02 µM), for which the relative viability amounted to 0.403.

On to `COCC1(CO)C(=O)C2CCN1CC2` (stereo not drawn) [PRIMA-1MET] + Nc1ncn([C@H]2C[C@H](O)[C@@H](CO)O2)c(=O)n1 [Decitabine] (partner 2 µM), for which the relative viability was found to be 0.478.

`COCC1(CO)C(=O)C2CCN1CC2` (stereo not drawn) [PRIMA-1MET] + O=C(c1cc(Cc2n[nH]c(=O)c3ccccc23)ccc1F)N1CCN(C(=O)C2CC2)CC1 [Olaparib] (partner 8 µM) showed a relative viability of 0.69.

Staying with this experiment, now noted: first compound 0.6325 µM.
In turn, `COCC1(CO)C(=O)C2CCN1CC2` (stereo not drawn) [PRIMA-1MET] + N=C(N)NC(=N)NCCc1ccccc1 [Phenformin] (partner 250 µM) had a relative viability of 0.421.

`COCC1(CO)C(=O)C2CCN1CC2` (stereo not drawn) [PRIMA-1MET] + Nc1nc2[nH]cc(CCc3ccc(C(=O)N[C@@H](CCC(=O)O)C(=O)O)cc3)c2c(=O)[nH]1 [Pemetrexed] (partner 0.2 µM) had a relative viability of 0.232.

`COCC1(CO)C(=O)C2CCN1CC2` (stereo not drawn) [PRIMA-1MET] + CC(=O)Nc1cccc(-n2c(=O)n(C3CC3)c(=O)c3c(Nc4ccc(I)cc4F)n(C)c(=O)c(C)c32)c1 [Trametinib] (partner 0.02 µM) yielded a relative viability of 0.754.

In the case of `COCC1(CO)C(=O)C2CCN1CC2` (stereo not drawn) [PRIMA-1MET] + Nc1ncn([C@H]2C[C@H](O)[C@@H](CO)O2)c(=O)n1 [Decitabine] (partner 2 µM), the relative viability worked out at 0.354.

In the case of `COCC1(CO)C(=O)C2CCN1CC2` (stereo not drawn) [PRIMA-1MET] + O=C(c1cc(Cc2n[nH]c(=O)c3ccccc23)ccc1F)N1CCN(C(=O)C2CC2)CC1 [Olaparib] (partner 8 µM), the relative viability worked out at 0.832.

The experiment is the same for the next values; noted with them: first compound 2 µM.
In turn, `COCC1(CO)C(=O)C2CCN1CC2` (stereo not drawn) [PRIMA-1MET] + Nc1nc2[nH]cc(CCc3ccc(C(=O)N[C@@H](CCC(=O)O)C(=O)O)cc3)c2c(=O)[nH]1 [Pemetrexed] (partner 0.2 µM) displayed a relative viability of 0.209.

`COCC1(CO)C(=O)C2CCN1CC2` (stereo not drawn) [PRIMA-1MET] + CC(=O)Nc1cccc(-n2c(=O)n(C3CC3)c(=O)c3c(Nc4ccc(I)cc4F)n(C)c(=O)c(C)c32)c1 [Trametinib] (partner 0.02 µM) returned a relative viability of 0.647.

As for `COCC1(CO)C(=O)C2CCN1CC2` (stereo not drawn) [PRIMA-1MET] + Nc1ncn([C@H]2C[C@H](O)[C@@H](CO)O2)c(=O)n1 [Decitabine] (partner 2 µM), the relative viability was found to be 0.622.

Regarding `COCC1(CO)C(=O)C2CCN1CC2` (stereo not drawn) [PRIMA-1MET] + O=C(c1cc(Cc2n[nH]c(=O)c3ccccc23)ccc1F)N1CCN(C(=O)C2CC2)CC1 [Olaparib] (partner 8 µM), the relative viability is 0.7.

The experiment is the same for the next values; noted with them: first compound 6.325 µM.
Turning to `COCC1(CO)C(=O)C2CCN1CC2` (stereo not drawn) [PRIMA-1MET] + N=C(N)NC(=N)NCCc1ccccc1 [Phenformin] (partner 250 µM), the relative viability came to 0.538.

In turn, `COCC1(CO)C(=O)C2CCN1CC2` (stereo not drawn) [PRIMA-1MET] + Nc1nc2[nH]cc(CCc3ccc(C(=O)N[C@@H](CCC(=O)O)C(=O)O)cc3)c2c(=O)[nH]1 [Pemetrexed] (partner 0.2 µM) had a relative viability of 0.243.

`COCC1(CO)C(=O)C2CCN1CC2` (stereo not drawn) [PRIMA-1MET] + CC(=O)Nc1cccc(-n2c(=O)n(C3CC3)c(=O)c3c(Nc4ccc(I)cc4F)n(C)c(=O)c(C)c32)c1 [Trametinib] (partner 0.02 µM) came in with a relative viability of 0.529.

As for `COCC1(CO)C(=O)C2CCN1CC2` (stereo not drawn) [PRIMA-1MET] + Nc1ncn([C@H]2C[C@H](O)[C@@H](CO)O2)c(=O)n1 [Decitabine] (partner 2 µM), the relative viability was 0.607.

Regarding `COCC1(CO)C(=O)C2CCN1CC2` (stereo not drawn) [PRIMA-1MET] + O=C(c1cc(Cc2n[nH]c(=O)c3ccccc23)ccc1F)N1CCN(C(=O)C2CC2)CC1 [Olaparib] (partner 8 µM), the relative viability was 0.75.

Still in this experiment, the particulars now being: first compound 20 µM.
The compound `COCC1(CO)C(=O)C2CCN1CC2` (stereo not drawn) [PRIMA-1MET] + N=C(N)NC(=N)NCCc1ccccc1 [Phenformin] (partner 250 µM) gave a relative viability of 0.409.

Compound `COCC1(CO)C(=O)C2CCN1CC2` (stereo not drawn) [PRIMA-1MET] + Nc1nc2[nH]cc(CCc3ccc(C(=O)N[C@@H](CCC(=O)O)C(=O)O)cc3)c2c(=O)[nH]1 [Pemetrexed] (partner 0.2 µM) had a relative viability of 0.247.

On to `COCC1(CO)C(=O)C2CCN1CC2` (stereo not drawn) [PRIMA-1MET] + CC(=O)Nc1cccc(-n2c(=O)n(C3CC3)c(=O)c3c(Nc4ccc(I)cc4F)n(C)c(=O)c(C)c32)c1 [Trametinib] (partner 0.02 µM), for which the relative viability worked out at 0.736.

In the case of `COCC1(CO)C(=O)C2CCN1CC2` (stereo not drawn) [PRIMA-1MET] + Nc1ncn([C@H]2C[C@H](O)[C@@H](CO)O2)c(=O)n1 [Decitabine] (partner 2 µM), the relative viability was determined as 0.607.

With `COCC1(CO)C(=O)C2CCN1CC2` (stereo not drawn) [PRIMA-1MET] + O=C(c1cc(Cc2n[nH]c(=O)c3ccccc23)ccc1F)N1CCN(C(=O)C2CC2)CC1 [Olaparib] (partner 8 µM), the relative viability was determined as 0.741.

For a further experiment, the system named is NCI-H650. The description is as above. The following applies: first compound 0.2 µM. In outline: as §1
Compound `COCC1(CO)C(=O)C2CCN1CC2` (stereo not drawn) [PRIMA-1MET] + N=C(N)NC(=N)NCCc1ccccc1 [Phenformin] (partner 250 µM) returned a relative viability of 0.595.

`COCC1(CO)C(=O)C2CCN1CC2` (stereo not drawn) [PRIMA-1MET] + Nc1nc2[nH]cc(CCc3ccc(C(=O)N[C@@H](CCC(=O)O)C(=O)O)cc3)c2c(=O)[nH]1 [Pemetrexed] (partner 0.2 µM) gave a relative viability of 1.26.

In the case of `COCC1(CO)C(=O)C2CCN1CC2` (stereo not drawn) [PRIMA-1MET] + CC(=O)Nc1cccc(-n2c(=O)n(C3CC3)c(=O)c3c(Nc4ccc(I)cc4F)n(C)c(=O)c(C)c32)c1 [Trametinib] (partner 0.02 µM), the relative viability is 0.58.
